“Also recorded” adds a separate entry of the source.
Assays:
TbPRMT7 = target: T1, TbPRMT7 (Trypanosoma brucei brucei, UniProt Q582G4); test: 1-Step EZ-MTase UV-based coupled assay, TbPRMT7 kinetics (incl. ionic strength); type: biochemical; settings: for Km / kcat: pH=7.60, 25 mM phosphate, co-substrate saturating
T1 construct: made in house
Experimental: Briefly, the 250-μL reaction mixtures from a same row contained 25 mM phosphate buffer pH=7.60, 1 mM βME, 10% glycerol, 4 μM coupling deaminase TM0936, 1.0 μM TbPRMT7 and various peptide concentrations (16.6-243.3 μM; in the first well, peptide acceptor was omitted to account for background signal—natural decomposition of SAM). Reactions started upon addition of SAM (25.8 μM saturating final concentration) and absorbance was recorded. […] Fit to the Michaelis-Menten model (Eq. 5) provided corresponding kinetic parameters:
Briefly, the measurements consisted of two experimental subsets: MTase reactions (both SAM and peptide added) and MTase blanks (SAM was added without peptide to account for natural SAM decomposition). The 250-μL reaction mixtures from a same row contained 25 mM phosphate buffer pH=7.60, 1 mM βME, 10% glycerol, 4 μM coupling deaminase TM0936, 402 nM TbPRMT7 and various SAM concentrations (1.53-20.0 μM). […] Initial rates were first corrected for background signal, then plotted against SAM concentrations and fitted to the Morrison kinetic model to yield corresponding kinetic parameters.
(§1) Kinetic behavior for 8-aza-SAM against MTases (acceptor sat.)—Briefly, kinetic parameters were determined at 20° C. in a UV-Star 96-well flat bottom plate (Greiner Bio-One, #655801) by continuous monitoring of absorbance at 282 nm using a SpectraMax M5 instrument (Molecular Devices). As for SAM experiments, the measurements consisted of two experimental subsets: MTase reactions (both 8-aza-SAM and acceptor added) and MTase blanks (8-aza-SAM was added without acceptor to account for natural 8-aza-SAM decomposition). The 250-μL (60-μL) reaction mixtures from a same row contained 50 mM phosphate buffer pH=7.60 (7.80), 1 mM βME, 10% glycerol (5% glycerol, 100 μM MgCl2), 4 μM coupling deaminase TM0936, either 1.5 μM CePRMT5 or 402 nM TbPRMT7 (or 610 nM GsSDMT) and various 8-aza-SAM concentrations. […] Initial rates were first corrected for background signal, then plotted against 8-aza-SAM concentrations and fitted to the Michaelis-Menten equation to yield corresponding kinetic parameters. The kinetic data from CePRMT5 were fit to the following Eq. 6 to reflect substrate inhibition observed at higher 8-aza-SAM concentration:
Experiments were conducted following TbPRMT7 protocol above. Briefly, the 250-μL reaction mixtures from a same row contained either 25, 50, 75 or 100 mM phosphate buffer pH=7.60, 1 mM βME, 10% glycerol, 4 μM coupling deaminase TM0936, 1.0 μM TbPRMT7 and various peptide concentrations (16.6-243.3 μM; in the first well, peptide acceptor was omitted to account for background signal—natural decomposition of SAM). Reactions started upon addition of SAM (25.8 μM saturating final concentration) and absorbance was recorded. […] The four fits to the Michaelis-Menten equation (kcat fixed at 29 h^−1) provided corresponding Km values and established impact of ionic strength onto this kinetic parameter.

NcDIM-5 = target: T2, NcDIM-5 (Neurospora crassa, UniProt Q8X225); type: biochemical
T2 construct: GST; made in house
T2 sequence (Q8X225 1-331): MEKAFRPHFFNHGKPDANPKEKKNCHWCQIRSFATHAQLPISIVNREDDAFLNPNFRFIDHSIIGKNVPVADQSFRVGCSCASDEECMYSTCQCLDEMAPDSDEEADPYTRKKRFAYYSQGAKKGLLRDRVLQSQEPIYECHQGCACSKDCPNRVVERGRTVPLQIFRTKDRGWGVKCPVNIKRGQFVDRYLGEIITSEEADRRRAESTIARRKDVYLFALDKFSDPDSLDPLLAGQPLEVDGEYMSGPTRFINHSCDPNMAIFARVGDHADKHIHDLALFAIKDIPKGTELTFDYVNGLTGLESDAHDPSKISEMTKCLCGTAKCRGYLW
Experimental: Kinetic behavior for peptide H3(1-53) against NcDIM-S(SAM sat.)—Experiments were conducted following matching CePRMT5 protocol above. Briefly, the 250-μL reaction mixtures from a same row contained 25 mM glycine buffer pH=9.50, 1 mM βME, 10% glycerol, 50 mM NaCl, 4 μM coupling deaminase TM0936, 7.6 nM NcDIM-5 and various peptide concentrations (0.51-12.68 μM; in the first well, peptide acceptor was omitted to account for background signal—natural decomposition of SAM). Reactions started upon addition of SAM (25.8 μM saturating final concentration) and absorbance was recorded. Initial rates were first corrected for background signal, then plotted against H3(1-53) concentrations. Fit to the Michaelis-Menten equation provided corresponding kinetic parameters.
as §1, with “parameters.” for “parameters. The kinetic data from CePRMT5 were fit to the following Eq. 6 to reflect substrate inhibition observed at higher 8-aza-SAM concentration:”
where [MTase] and [8-aza-SAM] are the total concentration of methyltransferase and methyl donor, respectively; Km is the Michaelis constant, Kf is the substrate inhibition constant and kcat is the turnover for 8-aza-SAM substrate.

GsSDMT = target: T3, GsSDMT (Galdieria sulphuraria, UniProt M2XPA0); settings: lit. (54); cited from earlier work
T3 sequence (M2XPA0 2-297): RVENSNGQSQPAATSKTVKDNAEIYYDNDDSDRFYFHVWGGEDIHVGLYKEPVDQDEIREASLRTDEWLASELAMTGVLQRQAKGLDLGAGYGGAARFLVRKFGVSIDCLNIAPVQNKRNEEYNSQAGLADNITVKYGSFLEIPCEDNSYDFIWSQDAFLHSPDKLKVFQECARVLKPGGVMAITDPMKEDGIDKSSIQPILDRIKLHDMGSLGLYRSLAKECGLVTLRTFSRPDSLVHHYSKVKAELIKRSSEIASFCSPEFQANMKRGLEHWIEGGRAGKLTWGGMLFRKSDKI

[1] = pH=9.50, 25 μM SAM, 7.6 nM NcDIM-5

T1 sequence (Q582G4 whole entry): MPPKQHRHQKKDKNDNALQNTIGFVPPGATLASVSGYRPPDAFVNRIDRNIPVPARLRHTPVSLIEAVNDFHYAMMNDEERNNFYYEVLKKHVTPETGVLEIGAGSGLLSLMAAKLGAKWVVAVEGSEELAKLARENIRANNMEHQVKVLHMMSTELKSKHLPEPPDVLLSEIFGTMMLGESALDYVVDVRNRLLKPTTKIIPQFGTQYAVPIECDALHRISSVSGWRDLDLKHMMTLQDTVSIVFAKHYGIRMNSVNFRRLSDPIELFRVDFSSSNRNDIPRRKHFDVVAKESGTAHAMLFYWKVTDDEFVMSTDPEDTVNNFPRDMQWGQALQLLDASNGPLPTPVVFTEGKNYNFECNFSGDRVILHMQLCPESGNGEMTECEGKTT

| SMILES | substrate inhibition (inhibitory behavior of the analog) (TbPRMT7) | Km (TbPRMT7) [µM] | kcat (TbPRMT7) [s⁻¹] | acceptance of cofactor analog as substrate (NcDIM-5) | Km (NcDIM-5; [1]) | kcat (NcDIM-5; [1]) | kcat (GsSDMT) [s⁻¹] |
| --- | --- | --- | --- | --- | --- | --- | --- |
| C[S+](CC[C@H](N)C(=O)O)C[C@H]1O[C@@H](n2nnc3c(N)ncnc32)[C@H](O)[C@@H]1O (stereo partly drawn) [8-aza-SAM, S-8-aza-adenosyl-L-methionine] | not observed | 15.3 ± 0.7 | 0.00639 ± 0.00011 | unable to accept; also recorded: unable to process | NOT A | NOT A | – |
| C[S+](CC[C@H](N)C(=O)O)C[C@H]1O[C@@H](n2cnc3c(N)ncnc32)[C@H](O)[C@@H]1O (stereo partly drawn) [SAM, S-adenosyl-L-methionine] | – | 1.1 ± 0.2 | 0.00619 ± 0.00017 | – | – | – | 0.867 ± 0.067 |

— patent US20230220443A1, “CHARACTERIZATION OF S-ADENOSYL-L-METHIONINE-CONSUMING ENZYMES WITH 1-STEP EZ-MTASE: A UNIVERSAL COUPLED-ASSAY” (ALBERT EINSTEIN COLLEGE OF MEDICINE, priority 2017, published 2023)
